Results reported in US4693992A, “Bacitracin-metal-polyether antibiotic complexes” (International Minerals & Chemical Corp., priority 1985, dated 1987).

How the values were obtained:
buffered rumen fluid = experiment: Rumen screen, in vitro ruminal volatile fatty acid ratio (Examples 15, 16); type: cell-based, steer; conditions: 10 ppm, Neg. Control 1.39
Procedure: Rumen fluid was removed from a fistulated steer and strained through a cheesecloth. An equal amount of pH 7 buffer was added to strained rumen fluid. After layering occurred, the lower layer was saved and again diluted with equal amount of buffer. Ten ml. portions of buffered rumen fluid were added to fermentation vessels containing 500 mg. fresh finely ground cattle ration, 1 mg cellubiose and a test compound listed in Table 1 below at the indicated concentration. The fermentation vesels were outfitted with one-way gas valves, placed in an incubator and shaken for 24 hours at 38° C. Fermentation was stopped by addition of 1 ml mercuric chloride. The liquid was decanted and analyzed for volatile fatty acids by gas chromatography. Test results are summarized in Table 1, wherein Bac=bacitracin.
The procedures of Example 15 were repeated in all essential details with the test compounds and concentrations listed in Table 1 below, as are the results of the test.

Eimeria tenella [1] = experiment: Anticoccidial activity in chickens inoculated with Eimeria tenella (Example 12); type: in vivo, chicken; conditions: for Cecal bleeding associated with E. tenella infections: 80 gram per ton; for weight gains compared with those of test compound 5 and lasalocid: 80 gram per ton (lasalocid 24 gram per ton)
Procedure: (§1) This example describes experimental testing of complexes of this invention for anticoccidial activity. Anticoccidial activities of test compounds were determined by administering the compounds (in feed) to chickens inoculated with active oocysts of Eimeria tenella. The test compounds, which are listed in Table 1 below, included four bacitracin-metal-polyether antibiotic complexes prepared according to the procedures described above. In addition, sodium lysocellin, regular bacitracin, sodium monensin, sodium lasolocid, and unmedicated inoculated and noninoculated controls were included for comparative purposes.
(§2) The test animals were Hubbard White Mountain male chicken (broiler strain) that were 5 days old at the beginning of the test. Each experimental compound was administered in a chick starter diet (Table 2) at a level of 80 g/ton and 120 g/ton. At 7 days of age, chicks were individually weighed, banded, and started on their respective treatments. Each treatment was replicated three times with five birds per replicate for a total of 15 birds per group. The test period was 10 days.
Seventy-two hours after the initiation of medication, birds were reweighed and orally inoculated with approximately 100,000 Eimeria tenella oocysts suspended in a 1 cc dose of saline. The following criteria were then evaluated over the next seven days:
A satisfactory challenge was obtained with Eimeria tenella.

Eimeria tenella [2] = experiment: Anticoccidial activity in chickens inoculated with Eimeria tenella oocysts (Example 11); type: in vivo; conditions: for Incidence of Bloody Droppings / Morbidity: 4th-6th day; for Morbidity: birds affected/birds in group; for Mortality: 4th-7th day, birds dead/birds in group; for F/G Day 0-3 / F/G Day 4-10: feed per gain
Procedure: as §1, §2
Seventy-two hours after the initiation of medication, birds were reweighed and orally inoculated with approximately 100,000 Eimeria tenella oocysts suspended in a 1 cc dose of saline. The following criteria were then evaluated over the next seven days: […]
a. morbidity (4th-6th day) b. mortality (4th-7th day) c. incidence of bloody droppings (4th-6th day)

[3] = Weight gain and feed utilization efficiency in chicks, 11 days (Example 13); type: in vivo, chicken; design: key to Average Weight: average weight in grams; conditions: for Average Gain / Gain/Feed Ratio / Average Weight / Gain/Feed / Average Gain Index / Gain/Feed Ratio Index: .00275% in rye basal diet; for Average Gain / Gain/Feed Ratio: 11 days; for Average Gain Index / Gain/Feed Ratio Index: unmedicated = 100
Procedure: (§3) This example describes experimetnal testing of complexes of the present invention as feed additives for improving weight gain or feed utilization efficiency in birds. Test animals were male meat-type chickens (Hubbard strain). Fluorescent room lights were on a 16 hours light/8 hours dark schedule. The chicks were allotted to the pens on the basis of weight classes, and chicks in the even numbered pens were wing banded. Group weights were obtained at the start and individual weights at the termination of the experiment. Chicks weighing between 55 and 65 grams were selected for the test. The test compounds were blended with a basal feed ration (shown in Table 2) at the indicated concentration. Birds fed […] and feed supplemented with zinc bacitracin (Baciferm® 50, International Minerals and Chemical Corp.) were used as controls. The test was continued for 11 days, after which individual weights, pen weight and feed consumption were recorded and analyzed.

[4] = Weight gain and feed utilization in chicks, 12 days (Example 14); type: in vivo, chicken; conditions: .0066% in feed; for Gain/Feed Data / Gains/gram Data: 12 days; for Gain/Feed Index Relative to #1 / Gains Index Relative to #1: #1 = unmedicated; for Gain/Feed Index Relative to #2 / Gains Index Relative to #2: #2 = zinc bacitracin
Procedure: as §3
All of the bacitracin-metal-polyether antibiotic complexes tested produced statistically significant increases in gains compared to the unmedicated basal ration.
The test involving test compounds 1 and 3-14 consisted of 5 replicates of 7 chicks and those involving test compound 2 consisted of 6 replicates of 7 chicks. The tests were continued for 12 days, after which individual weight gains and feed conusumption were recorded and analyzed.

[5] = 14 g/ton Lasalocid (Approx.), regrouped part of Table 2
[6] = 36 g/ton Lasalocid (Approx.), regrouped part of Table 2

What does the source list for “Bacitracin-Cobalt-Lysocellin Complex [Example 1]”?
A/P Ratio (buffered rumen fluid; Example 15, 24 hours at 38° C.): 1.10; Cecal Bleeding (Eimeria tenella [1]; [5]): Severe; Gain/Bird Days 0-3 (Eimeria tenella [1]; [5]): 61.6; Gain/Bird Days 4-10 (Eimeria tenella [1]; [5]): 180.1; Cecal Bleeding (Eimeria tenella [1]; [6]): Slight; Feed/Gain Days 0-3 (Eimeria tenella [1]; [6]): 1.65; Gain/Bird Days 0-3 (Eimeria tenella [1]; [6]): 59.0; Gain/Bird Days 4-10 (Eimeria tenella [1]; [6]): 188.4; Incidence of Bloody Droppings (Eimeria tenella [1]; 80 g/ton in feed): Severe; Morbidity (Eimeria tenella [1]; 80 g/ton in feed): 6/15; Mortality (Eimeria tenella [1]; 80 g/ton in feed): 0/15; F/G Day 0-3 (Eimeria tenella [1]; 80 g/ton in feed): 1.62; Gain/Bird Grams Day 0-3 (Eimeria tenella [1]; 80 g/ton in feed): 61.6 Grams; F/G Day 4-10 (Eimeria tenella [1]; 80 g/ton in feed): 1.86; Gain/Bird Grams Day 4-10 (Eimeria tenella [1]; 80 g/ton in feed): 180.1 Grams; Cecal bleeding associated with E. tenella infections (Eimeria tenella [1]): severe; weight gains compared with those of test compound 5 and lasalocid (Eimeria tenella [1]): appreciably higher; Incidence of Bloody Droppings (Eimeria tenella [1]; 120 g/ton in feed): Slight-; Morbidity (Eimeria tenella [1]; 120 g/ton in feed): 4/15; Mortality (Eimeria tenella [1]; 120 g/ton in feed): 0/15; F/G Day 0-3 (Eimeria tenella [1]; 120 g/ton in feed): 1.64; Gain/Bird Grams Day 0-3 (Eimeria tenella [1]; 120 g/ton in feed): 59.0 Grams; F/G Day 4-10 (Eimeria tenella [1]; 120 g/ton in feed): 1.78; Gain/Bird Grams Day 4-10 (Eimeria tenella [1]; 120 g/ton in feed): 188.4 Grams; anticoccidial activity (in words) (Eimeria tenella [1]; 120 grams per ton): good anticoccidial activity; Incidence of Bloody Droppings (Eimeria tenella [2]; 80 g/ton in feed): Severe; Morbidity (Eimeria tenella [2]; 80 g/ton in feed): 10/15; Mortality (Eimeria tenella [2]; 80 g/ton in feed): 0/15; Gain, Grams Day 0-3 (Eimeria tenella [2]; 80 g/ton in feed): 58.4 Grams; Gain, Grams Day 4-10 (Eimeria tenella [2]; 80 g/ton in feed): 196.5 Grams; F/G Day 0-3 (Eimeria tenella [2]; 80 g/ton in feed): 1.75; F/G Day 4-10 (Eimeria tenella [2]; 80 g/ton in feed): 1.71; Incidence of Bloody Droppings (Eimeria tenella [2]; 120 g/ton in feed): Moderate; Morbidity (Eimeria tenella [2]; 120 g/ton in feed): 4/15; Mortality (Eimeria tenella [2]; 120 g/ton in feed): 0/15; Gain, Grams Day 0-3 (Eimeria tenella [2]; 120 g/ton in feed): 54.1 Grams; Gain, Grams Day 4-10 (Eimeria tenella [2]; 120 g/ton in feed): 209.1 Grams; F/G Day 0-3 (Eimeria tenella [2]; 120 g/ton in feed): 1.81; F/G Day 4-10 (Eimeria tenella [2]; 120 g/ton in feed): 1.66

What does the source list for “Bacitracin-Nickel-Lysocellin Complex [Example 4]”?
A/P Ratio (buffered rumen fluid; Example 15, 24 hours at 38° C.): 1.10; A/P Ratio (buffered rumen fluid; Example 16): .88; Cecal Bleeding (Eimeria tenella [1]; [5]): Severe; Gain/Bird Days 0-3 (Eimeria tenella [1]; [5]): 63.3; Gain/Bird Days 4-10 (Eimeria tenella [1]; [5]): 164.1; Cecal Bleeding (Eimeria tenella [1]; [6]): Slight-Moderate; Gain/Bird Days 0-3 (Eimeria tenella [1]; [6]): 59.5; Gain/Bird Days 4-10 (Eimeria tenella [1]; [6]): 187.4; Incidence of Bloody Droppings (Eimeria tenella [1]; 80 g/ton in feed): Severe; Morbidity (Eimeria tenella [1]; 80 g/ton in feed): 9/15; Mortality (Eimeria tenella [1]; 80 g/ton in feed): 0/15; F/G Day 0-3 (Eimeria tenella [1]; 80 g/ton in feed): 1.61; Gain/Bird Grams Day 0-3 (Eimeria tenella [1]; 80 g/ton in feed): 63.3 Grams; F/G Day 4-10 (Eimeria tenella [1]; 80 g/ton in feed): 1.91; Gain/Bird Grams Day 4-10 (Eimeria tenella [1]; 80 g/ton in feed): 164.1 Grams; Cecal bleeding associated with E. tenella infections (Eimeria tenella [1]): severe; weight gains compared with those of test compound 5 and lasalocid (Eimeria tenella [1]): appreciably higher; Morbidity (Eimeria tenella [1]; 120 g/ton in feed): 5/15; Mortality (Eimeria tenella [1]; 120 g/ton in feed): 0/15; F/G Day 0-3 (Eimeria tenella [1]; 120 g/ton in feed): 1.69; Gain/Bird Grams Day 0-3 (Eimeria tenella [1]; 120 g/ton in feed): 59.5 Grams; F/G Day 4-10 (Eimeria tenella [1]; 120 g/ton in feed): 1.72; Gain/Bird Grams Day 4-10 (Eimeria tenella [1]; 120 g/ton in feed): 187.4 Grams; protection against cecal bleeding (Eimeria tenella [2]; 80 and 120 g/ton): only fair; bleeding (Eimeria tenella [2]; 80 and 120 g/ton, this test): slight bleeding; anticoccidial activity (in words) (Eimeria tenella [2]; 80 and 120 g/ton, mild E. tenella challenge): performed well; Incidence of Bloody Droppings (Eimeria tenella [2]; 80 g/ton in feed): Slight; Morbidity (Eimeria tenella [2]; 80 g/ton in feed): 2/15; Mortality (Eimeria tenella [2]; 80 g/ton in feed): 0/15; Gain, Grams Day 0-3 (Eimeria tenella [2]; 80 g/ton in feed): 60.8 Grams; Gain, Grams Day 4-10 (Eimeria tenella [2]; 80 g/ton in feed): 229.1 Grams; F/G Day 0-3 (Eimeria tenella [2]; 80 g/ton in feed): 1.70; F/G Day 4-10 (Eimeria tenella [2]; 80 g/ton in feed): 1.59; Incidence of Bloody Droppings (Eimeria tenella [2]; 120 g/ton in feed): Slight; Morbidity (Eimeria tenella [2]; 120 g/ton in feed): 1/15; Mortality (Eimeria tenella [2]; 120 g/ton in feed): 1/15; Gain, Grams Day 0-3 (Eimeria tenella [2]; 120 g/ton in feed): 58.6 Grams; Gain, Grams Day 4-10 (Eimeria tenella [2]; 120 g/ton in feed): 227.7 Grams; F/G Day 0-3 (Eimeria tenella [2]; 120 g/ton in feed): 1.70; F/G Day 4-10 (Eimeria tenella [2]; 120 g/ton in feed): 1.59; bleeding (Eimeria tenella [2]; 200 g/ton, in C-760 (another test)): no bleeding; Average Gain [3]: 217 g; Gain/Feed Ratio [3]: 62.8; Average Weight ([3]; Table 4): 277.0; Gain/Feed ([3]; Table 4): 62.8; Average Gain Index [3]: 105.4; Gain/Feed Ratio Index [3]: 98.5; Gain/Feed Data [4]: .585; Gains/gram Data [4]: 197.2 gram; Gain/Feed Index Relative to #1 [4]: 103.9; Gains Index Relative to #1 [4]: 106.5; Gain/Feed Index Relative to #2 [4]: 98.2; Gains Index Relative to #2 [4]: 94.1

For “Bacitracin-Zinc-Lysocellin Complex [Example 6]”, which “A/P Ratio” value (buffered rumen fluid; Example 16) is on record?
Its value is 1.14.

What about the “Average Gain” value [3] of the same substance?
Its value is 219 g.

And the “Gain/Feed Ratio” value [3]?
Its value is 66.7.

And the “Average Weight” value ([3]; Table 4)?
The value was 279.4.

What about the Gain/Feed ([3]; Table 4) of the same substance?
Its Gain/Feed is 66.7.

What about the “Average Gain Index” value [3] of the same substance?
The value was 106.6.

And the “Gain/Feed Ratio Index” value [3]?
Its value is 104.7.

And the “improvement in feed utilization efficiency vs unmedicated controls” value ([3]; statistical comparison, Table 4)?
Its value is “significant imporvement”.

And the “Gain/Feed Data” value [4]?
Its value is “.609”.

And the “Gains/gram Data” value [4]?
The value was 213.8 gram.

What about the “Gain/Feed Index Relative to #1” value [4] of the same substance?
The value was 108.2.

What about the “Gains Index Relative to #1” value [4] of the same substance?
The value was 115.5.

What about the “Gain/Feed Index Relative to #2” value [4] of the same substance?
The value was 102.2.

And the “Gains Index Relative to #2” value [4]?
The value was 102.0.
